pIC50: −log10 of the molar value.
Key:
[1] = system: A549; assay: Induction of cell cycle arrest in human A549 cells assessed as accumulation at G2/M phase at 10 uM after 48 hrs by flow cytometric analysis (reference value: 25.4%); format: functional
[2] = system: A549; assay: Induction of cell cycle arrest in human A549 cells assessed as accumulation at sub G1 phase at 10 uM after 24 hrs by flow cytometric analysis (reference value: 7.8%); format: functional
[3] = system: A549; assay: Cytotoxicity against human A549 cells assessed as reduction in cell viability by MTT assay; format: functional, cell-based
[4] = system: A549; assay: Induction of cell cycle arrest in human A549 cells assessed as accumulation at G2/M phase at 10 uM after 24 hrs by flow cytometric analysis (reference value: 21.6%); format: functional
[5] = system: A549; assay: Induction of cell cycle arrest in human A549 cells assessed as accumulation at G1 phase at 10 uM after 48 hrs by flow cytometric analysis (reference value: 57.8%); format: functional
[6] = system: A549; assay: Induction of cell cycle arrest in human A549 cells assessed as accumulation at G1 phase at 10 uM after 24 hrs by flow cytometric analysis (reference value: 53.1%); format: functional
[7] = system: A549; assay: Induction of cell cycle arrest in human A549 cells assessed as accumulation at S phase at 10 uM after 24 hrs by flow cytometric analysis (reference value: 17.6%); format: functional
[8] = system: A549; assay: Induction of cell cycle arrest in human A549 cells assessed as accumulation at sub G1 phase at 10 uM after 48 hrs by flow cytometric analysis (reference value: 4.9%); format: functional
[9] = system: A549; assay: Induction of cell cycle arrest in human A549 cells assessed as accumulation at S phase at 10 uM after 48 hrs by flow cytometric analysis (reference value: 12%); format: functional
[10] = Protein binding in human plasma at 10 uM after 4 hrs; format: ADME, cell-free; settings: read-out: PPB (converted)
[11] = Protein binding in rat plasma at 10 uM after 4 hrs; format: ADME, cell-free; settings: read-out: PPB (converted)
[12] = system: A549; assay: Induction of cell cycle arrest in human A549 cells assessed as accumulation at G2/M phase at 5 uM after 48 hrs by flow cytometric analysis (reference value: 22.1 to 25.4 %); format: functional
[13] = system: A549; assay: Induction of cell cycle arrest in human A549 cells assessed as accumulation at G1 phase at 5 uM after 48 hrs by flow cytometric analysis (reference value: 57.8 to 65.5%); format: functional
[14] = system: A549; assay: Induction of cell cycle arrest in human A549 cells assessed as accumulation at G1 phase at 5 uM after 24 hrs by flow cytometric analysis (reference value: 53.1%); format: functional
[15] = system: A549; assay: Induction of cell cycle arrest in human A549 cells assessed as accumulation at sub G1 phase at 5 uM after 48 hrs by flow cytometric analysis (reference value: 1.9 to 4.9%); format: functional
[16] = system: A549; assay: Induction of cell cycle arrest in human A549 cells assessed as accumulation at S phase at 5 uM after 24 hrs by flow cytometric analysis (reference value: 17.6%); format: functional
[17] = system: A549; assay: Induction of cell cycle arrest in human A549 cells assessed as accumulation at S phase at 5 uM after 48 hrs by flow cytometric analysis (reference value: 10.4 to 12%); format: functional
[18] = system: A549; assay: Induction of cell cycle arrest in human A549 cells assessed as accumulation at sub G1 phase at 5 uM after 24 hrs by flow cytometric analysis (reference value: 7.8%); format: functional
[19] = system: A549; assay: Induction of cell cycle arrest in human A549 cells assessed as accumulation at G2/M phase at 5 uM after 24 hrs by flow cytometric analysis (reference value: 21.6%); format: functional
[20] = biological target: Voltage-dependent T-type calcium channel subunit alpha-1G (Homo sapiens, UniProt O43497); assay: Inhibition of T type calcium channel Cav3.1 (unknown origin) expressed in HEK293T cells by patch clamp method relative to control; format: cell-based
Chain of Voltage-dependent T-type calcium channel subunit alpha-1G (O43497 whole entry): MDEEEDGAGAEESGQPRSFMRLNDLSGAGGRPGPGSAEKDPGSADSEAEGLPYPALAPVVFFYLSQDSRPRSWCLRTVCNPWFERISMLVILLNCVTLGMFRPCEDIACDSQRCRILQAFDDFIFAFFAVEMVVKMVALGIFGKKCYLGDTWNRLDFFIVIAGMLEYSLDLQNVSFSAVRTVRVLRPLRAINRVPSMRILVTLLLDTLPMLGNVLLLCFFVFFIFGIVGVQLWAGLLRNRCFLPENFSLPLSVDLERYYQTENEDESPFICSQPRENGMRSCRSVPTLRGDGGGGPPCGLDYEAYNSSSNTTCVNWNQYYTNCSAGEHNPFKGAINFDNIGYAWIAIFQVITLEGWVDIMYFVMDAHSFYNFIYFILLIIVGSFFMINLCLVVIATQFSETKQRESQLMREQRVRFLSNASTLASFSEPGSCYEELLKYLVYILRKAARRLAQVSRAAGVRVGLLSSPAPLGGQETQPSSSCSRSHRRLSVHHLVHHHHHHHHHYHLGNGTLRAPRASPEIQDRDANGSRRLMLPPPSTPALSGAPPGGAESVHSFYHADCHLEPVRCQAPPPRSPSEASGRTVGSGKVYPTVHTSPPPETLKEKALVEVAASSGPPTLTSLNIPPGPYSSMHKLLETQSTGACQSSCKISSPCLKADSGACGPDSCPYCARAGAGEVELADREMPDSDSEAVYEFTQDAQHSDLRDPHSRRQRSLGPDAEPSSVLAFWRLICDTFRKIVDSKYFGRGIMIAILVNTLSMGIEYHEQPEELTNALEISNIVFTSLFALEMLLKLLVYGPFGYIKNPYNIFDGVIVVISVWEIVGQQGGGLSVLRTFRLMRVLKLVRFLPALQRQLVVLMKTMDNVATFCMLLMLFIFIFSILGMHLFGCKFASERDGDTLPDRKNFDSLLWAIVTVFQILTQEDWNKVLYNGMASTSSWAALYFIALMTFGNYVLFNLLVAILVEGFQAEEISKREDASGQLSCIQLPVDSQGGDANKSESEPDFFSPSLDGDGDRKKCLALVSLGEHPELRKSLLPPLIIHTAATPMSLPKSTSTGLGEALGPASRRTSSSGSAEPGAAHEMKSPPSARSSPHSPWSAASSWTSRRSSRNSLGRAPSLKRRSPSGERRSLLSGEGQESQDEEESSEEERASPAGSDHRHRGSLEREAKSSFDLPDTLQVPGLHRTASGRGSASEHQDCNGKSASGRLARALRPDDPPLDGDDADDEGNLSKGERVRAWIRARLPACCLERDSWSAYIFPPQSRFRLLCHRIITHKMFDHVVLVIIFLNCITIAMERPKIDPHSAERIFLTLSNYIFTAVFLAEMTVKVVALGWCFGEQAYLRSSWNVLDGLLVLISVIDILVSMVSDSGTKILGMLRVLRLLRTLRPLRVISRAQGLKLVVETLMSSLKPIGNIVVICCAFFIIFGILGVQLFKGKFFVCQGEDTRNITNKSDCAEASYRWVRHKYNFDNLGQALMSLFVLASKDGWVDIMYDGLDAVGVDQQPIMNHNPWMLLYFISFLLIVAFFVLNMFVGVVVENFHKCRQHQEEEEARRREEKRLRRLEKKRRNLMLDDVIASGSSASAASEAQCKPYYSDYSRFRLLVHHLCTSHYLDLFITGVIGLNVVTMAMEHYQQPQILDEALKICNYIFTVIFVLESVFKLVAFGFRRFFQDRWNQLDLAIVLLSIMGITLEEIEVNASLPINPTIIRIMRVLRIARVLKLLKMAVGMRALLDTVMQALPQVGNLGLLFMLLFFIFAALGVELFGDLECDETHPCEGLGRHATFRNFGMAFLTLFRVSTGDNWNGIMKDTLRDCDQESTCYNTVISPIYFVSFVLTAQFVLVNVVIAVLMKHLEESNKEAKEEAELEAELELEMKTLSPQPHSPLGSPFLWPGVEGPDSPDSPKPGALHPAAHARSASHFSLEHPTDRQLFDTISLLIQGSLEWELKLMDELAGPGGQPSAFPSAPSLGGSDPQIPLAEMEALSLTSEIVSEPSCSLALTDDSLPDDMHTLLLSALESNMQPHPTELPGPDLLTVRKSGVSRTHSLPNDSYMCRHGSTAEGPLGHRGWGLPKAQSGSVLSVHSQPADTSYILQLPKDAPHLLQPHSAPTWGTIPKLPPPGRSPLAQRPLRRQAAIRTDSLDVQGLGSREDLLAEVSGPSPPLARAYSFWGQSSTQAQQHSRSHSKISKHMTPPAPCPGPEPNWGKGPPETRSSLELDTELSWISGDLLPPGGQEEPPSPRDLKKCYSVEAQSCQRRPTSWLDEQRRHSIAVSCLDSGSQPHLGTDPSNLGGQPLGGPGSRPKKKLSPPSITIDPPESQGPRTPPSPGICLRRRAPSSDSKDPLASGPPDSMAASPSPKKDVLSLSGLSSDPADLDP

[21] = Metabolic stability in human plasma assessed as parent compound remaining at 10 uM measured after 2 hrs; format: ADME, cell-free; settings: read-out: Stabilty
[22] = Metabolic stability in rat plasma assessed as parent compound remaining at 10 uM measured after 2 hrs; format: ADME, cell-free; settings: read-out: Stabilty

With `COCC(=O)O[C@]1(CCN(C)CCCc2nc3ccccc3[nH]2)CCc2cc(F)ccc2[C@@H]1C(C)C` [MIBEFRADIL] the Activity [1] was 11.2%, the Activity [2] was 9.6% and the pIC50 [3] was 4.50. For the same compound, the Activity [4] was 13.4%, the Activity [5] was 66.8% and the Activity [6] was 66.1%. For the same compound, the Activity [7] was 10.9%, the Activity [8] was 10% and the Activity [9] was 12%.

`CC(=O)CC(c1ccccc1)c1c(O)c2ccccc2oc1=O` (stereo not drawn) [WARFARIN] showed a fraction unbound at 4 h, 10 µM [10] of 0.022 and a fraction unbound at 4 h, 10 µM [11] of 0.017.

For `CN(C)CCCCCN(C)C1=Nc2ccccc2C(CC(=O)NCc2ccccc2)N1c1ccc(-c2ccccc2)cc1.Cl.Cl` (stereo not drawn), the pIC50 [3] was 5.33, the Activity [12] was 0.1% and the Activity [13] was 1.2%. The Activity [14] was 33.6%, the Activity [15] was 98.1% and the Activity [16] was 8.8%. The Activity [17] was 0.6%, the Activity [18] was 55.3% and the Activity [19] was 2.2%. For the same compound, the pIC50 [20] was 6.29.

With `CCN(CC)CCOC(=O)c1ccc(N)cc1` [PROCAINE] the remaining at 2 h, 10 µM [21] was less than 5% and the remaining at 2 h, 10 µM [22] was greater than 50%.

Source: ChEMBL document CHEMBL4715696, “In vitro synergistic anticancer activity of the combination of T-type calcium channel blocker and chemotherapeutic agent in A549 cells” (Bioorg Med Chem Lett, 2016)
